Data taken from patent EP4578939A1, “MYC[…]. BASED ON VARIOUS CARBON-NITROGEN METABOLIC […], METHOD FOR ISOLATING SAME, AND USE THEREOF” (Peng, Guanghao, priority 2022, dated 2024).
Where a name gives a salt, the structure may show the parent alone. Read-outs that look alike come from different tables or passages of the source.

System: strain YT
Assay: inhibition of nitrification inhibitors on nitrification activity and growth
Assay type: cell-based, Mycobacterium sp.
Conditions: for inhibition at 5000 µM: Mycobacterium; for effect on growth of strain YT: pure culture with two nitrogen sources; for effect on nitrification activity of strain YT: pure culture; for inhibition rate on nitrification activity: over the 35 days of culture
Procedure: The nitrogen contents of the two nitrogen sources were equal in a modified Stephenson medium with (NH4)2SO4 as a nitrogen source (NH4)2SO4 content was 2.0g/L) and a modified Stephenson medium with L-arginine hydrochloride (C6H14N4O2•HCl) as a nitrogen source (C6H14N4O2•HCl content was 1.6 g/L).
When sodium pyruvate was added as a carbon source in the design of a culture medium, 1.0M sodium pyruvate solution (the concentration was calculated in terms of pyruvic acid) was prepared firstly, the pH was adjusted to the range of 7.0-7.2, and the solution was sterilized separately for later use. Before use, 1ml of 1.0M sodium pyruvate solution was added to about 100ml of modified Stevenson culture medium with (NH4)2SO4 as a nitrogen source or L-arginine hydrochloride (C6H14N4O2•HCl) as a nitrogen source, and the pyruvic acid concentration of the culture system was designed to be 0.01M.
Four kinds of nitrification inhibitors 4-amino-1,2,4-triazole (ATC), dicyandiamide (DCD, C2H4N4), aminoguanidine hydrochloride (CH6N4•HCl), and guanylthiourea (C2H6N4S) were selected. The four nitrification inhibitors were prepared with a concentration of 500mM, respectively, after the solutions were filtered and sterilized, 1ml of the four nitrification inhibitors with a concentration of 500mM was added into the two medium with different nitrogen sources, such that the corresponding concentration of each of the nitrification inhibitors in the systems was 5 mM.
Two mediums with different nitrogen sources were respectively subjected to 5 treatments, namely without addition of an inhibitor, adding ATC, adding DCD, adding aminoguanidine hydrochloride, and adding guanylthiourea as shown in the table below; the YT system without addition of an inhibitor and the system without inoculation of strain YT and only addition of an inhibitor were respectively used as a control group; 1ml of PBS-YT bacterial liquid was inoculated, and 1ml of sterile water was used as a substitute when the inoculation of a bacterial strain was not performed. The total volume of each culture system was equal, it was about 100 ml.
1.5 Culture conditions: the culture was performed in a shaking table with a rotational speed of 180rpm at 28°C.
1.6 Measurement and calculation of indicator: the growth OD600 and pH value of thallus in the culture solution were measured every week, the contents of NH4^+-N, NO2^--N and NOx^--N were measured, the inhibition effect of the nitric oxide synthase (nitrification) activity of different culture systems were calculated and compared.
Nitric oxide synthase (nitrification) inhibition rate (%) = (NO2^--NYT concentration - NO2^--Nculture system added with an inhibitor concentration) ×100/ NO2^--NYT concentration

[1] = strain YT, L-arginine hydrochloride as nitrogen source, inhibitor 5 mM, 7 days
[2] = strain YT, L-arginine hydrochloride as nitrogen source, inhibitor 5 mM, 14 days
[3] = strain YT, L-arginine hydrochloride as nitrogen source, inhibitor 5 mM, 21 days
[4] = strain YT, L-arginine hydrochloride as nitrogen source, inhibitor 5 mM, 28 days
[5] = strain YT, L-arginine hydrochloride as nitrogen source, inhibitor 5 mM, 35 days
[6] = strain YT, ammonium sulfate as nitrogen source, inhibitor 5 mM, 7 days
[7] = strain YT, ammonium sulfate as nitrogen source, inhibitor 5 mM, 14 days
[8] = strain YT, ammonium sulfate as nitrogen source, inhibitor 5 mM, 21 days
[9] = strain YT, ammonium sulfate as nitrogen source, inhibitor 5 mM, 28 days
[10] = strain YT, ammonium sulfate as nitrogen source, inhibitor 5 mM, 35 days
[11] = 168 h, strain YT, L-arginine hydrochloride, inhibitor 5 mM, Culture 7 days (Table 13e), read-out: Nitric oxide synthase (nitrification) activity inhibition rate (%)
[12] = 336 h, strain YT, L-arginine hydrochloride, inhibitor 5 mM, Culture 14 days (Table 13e), read-out: Nitric oxide synthase (nitrification) activity inhibition rate (%)
[13] = 480 h, strain YT, L-arginine hydrochloride, inhibitor 5 mM, Culture 20 days, read-out: Nitric oxide synthase (nitrification) activity inhibition rate (%)
[14] = strain YT, L-arginine hydrochloride, inhibitor 5 mM, Culture 31 days, read-out: Nitric oxide synthase (nitrification) activity inhibition rate (%)
[15] = strain YT, L-arginine hydrochloride as nitrogen source, inhibitor 5 mM, 7 days (Table 13c)
[16] = strain YT, L-arginine hydrochloride as nitrogen source, inhibitor 5 mM, 14 days (Table 13c)
[17] = strain YT, L-arginine hydrochloride as nitrogen source, inhibitor 5 mM, 20 days
[18] = strain YT, L-arginine hydrochloride as nitrogen source, inhibitor 5 mM, 31 days
[19] = strain YT, ammonium sulfate as nitrogen source, inhibitor 5 mM, 7 days (Table 13c)
[20] = strain YT, ammonium sulfate as nitrogen source, inhibitor 5 mM, 14 days (Table 13c)
[21] = strain YT, ammonium sulfate as nitrogen source, inhibitor 5 mM, 20 days
[22] = strain YT, ammonium sulfate as nitrogen source, inhibitor 5 mM, 31 days

N=C(N)NN [Aminoguanidine hydrochloride, aminoguanidine hydrochloride]
inhibition at 5000 µM (504 h, strain YT, Ammonium sulfate, inhibitor 5 mM, Culture 21 days, read-out: Nitric oxide synthase (nitrification) activity inhibition rate (%)): 99.4%
inhibition at 5000 µM (504 h, strain YT, L-arginine hydrochloride, inhibitor 5 mM, Culture 21 days, read-out: Nitric oxide synthase (nitrification) activity inhibition rate (%)): 99.8%
inhibition at 5000 µM (672 h, strain YT, Ammonium sulfate, inhibitor 5 mM, Culture 28 days, read-out: Nitric oxide synthase (nitrification) activity inhibition rate (%)): 97.2%
inhibition at 5000 µM (672 h, strain YT, L-arginine hydrochloride, inhibitor 5 mM, Culture 28 days, read-out: Nitric oxide synthase (nitrification) activity inhibition rate (%)): 99.5%
inhibition at 5000 µM (strain YT, Ammonium sulfate, inhibitor 5 mM, Culture 7 days (Table 13d), read-out: Nitric oxide synthase (nitrification) activity inhibition rate (%)): 99.2%
inhibition at 5000 µM (strain YT, Ammonium sulfate, inhibitor 5 mM, Culture 14 days (Table 13d), read-out: Nitric oxide synthase (nitrification) activity inhibition rate (%)): 99.7%
inhibition at 5000 µM (strain YT, Ammonium sulfate, inhibitor 5 mM, Culture 35 days, read-out: Nitric oxide synthase (nitrification) activity inhibition rate (%)): 98%
inhibition at 5000 µM (strain YT, L-arginine hydrochloride, inhibitor 5 mM, Culture 14 days (Table 13d), read-out: Nitric oxide synthase (nitrification) activity inhibition rate (%)): 99.8%
inhibition at 5000 µM (strain YT, L-arginine hydrochloride, inhibitor 5 mM, Culture 35 days, read-out: Nitric oxide synthase (nitrification) activity inhibition rate (%)): 99.1%
effect on growth of strain YT (inhibitor 5 mM): can inhibit the growth
effect on nitrification activity of strain YT (inhibitor 5 mM): had an inhibitory effect
NH4^+-N [1]: 12.86 mg/L
NO2^--N [1]: 0 mg/L
NH4^+-N [2]: 38.07 mg/L
NO2^--N [2]: 0.24 mg/L
NH4^+-N [3]: 100.12 mg/L
NO2^--N [3]: 0.28 mg/L
NH4^+-N [4]: 145.55 mg/L
NO2^--N [4]: 0.58 mg/L
NH4^+-N [5]: 58.70 mg/L
NO2^--N [5]: 1.00 mg/L
inhibition rate on nitrification activity (strain YT, L-arginine hydrochloride as nitrogen source): ≥ 99%
NH4^+-N [6]: 418.92 mg/L
NO2^--N [6]: 0 mg/L
NH4^+-N [7]: 419.06 mg/L
NO2^--N [7]: 0.01 mg/L
NH4^+-N [8]: 438.98 mg/L
NO2^--N [8]: 0.03 mg/L
NH4^+-N [9]: 448.65 mg/L
NO2^--N [9]: 0.19 mg/L
NH4^+-N [10]: 468.07 mg/L
NO2^--N [10]: 0.14 mg/L
inhibition rate on nitrification activity (strain YT, ammonium sulfate as nitrogen source): more than 97%

N#CN=C(N)N [DCD, dicyandiamide]
inhibition at 5000 µM (168 h, strain YT, Ammonium sulfate, inhibitor 5 mM, Culture 7 days (Table 13e), read-out: Nitric oxide synthase (nitrification) activity inhibition rate (%)): 0%
inhibition at 5000 µM [11]: 0%
inhibition at 5000 µM (336 h, strain YT, Ammonium sulfate, inhibitor 5 mM, Culture 14 days (Table 13e), read-out: Nitric oxide synthase (nitrification) activity inhibition rate (%)): 0%
inhibition at 5000 µM [12]: 7.14%
inhibition at 5000 µM (480 h, strain YT, Ammonium sulfate, inhibitor 5 mM, Culture 20 days, read-out: Nitric oxide synthase (nitrification) activity inhibition rate (%)): 32.4%
inhibition at 5000 µM [13]: 0.72%
inhibition at 5000 µM (strain YT, Ammonium sulfate, inhibitor 5 mM, Culture 31 days, read-out: Nitric oxide synthase (nitrification) activity inhibition rate (%)): 8.62%
inhibition at 5000 µM [14]: 0%
effect on growth of strain YT (inhibitor 5 mM): did not inhibit the growth
effect on nitrification activity of strain YT (inhibitor 5 mM): did not impose an inhibitory effect
NH4^+-N [15]: 18
NO2^--N [15]: 0.50
OD600 [15]: 0.397
NH4^+-N [16]: 121
NO2^--N [16]: 32.5
OD600 [16]: 0.438
NH4^+-N [17]: 191
NO2^--N [17]: 152.77
OD600 [17]: 0.415
NH4^+-N [18]: 173
NO2^--N [18]: 153.87
OD600 [18]: 0.378
NH4^+-N [19]: 421
NO2^--N [19]: 1.00
OD600 [19]: 0.207
NH4^+-N [20]: 408
NO2^--N [20]: 2.50
OD600 [20]: 0.121
NH4^+-N [21]: 355
NO2^--N [21]: 3.20
OD600 [21]: 0.127
NH4^+-N [22]: 382
NO2^--N [22]: 5.11
OD600 [22]: 0.128

Nn1cnnc1 [ATC, 4-amino-1,2,4-triazole]
inhibition at 5000 µM (168 h, read-out: Nitric oxide synthase (nitrification) activity inhibition rate (%), strain YT, Ammonium sulfate, inhibitor 5 mM, Culture 7 days (Table 13e)): 100%
inhibition at 5000 µM [11]: 100%
inhibition at 5000 µM (336 h, read-out: Nitric oxide synthase (nitrification) activity inhibition rate (%), strain YT, Ammonium sulfate, inhibitor 5 mM, Culture 14 days (Table 13e)): 80%
inhibition at 5000 µM [12]: 98.6%
inhibition at 5000 µM (480 h, read-out: Nitric oxide synthase (nitrification) activity inhibition rate (%), strain YT, Ammonium sulfate, inhibitor 5 mM, Culture 20 days): 89.4%
inhibition at 5000 µM [13]: 99.8%
inhibition at 5000 µM (read-out: Nitric oxide synthase (nitrification) activity inhibition rate (%), strain YT, Ammonium sulfate, inhibitor 5 mM, Culture 31 days): 25.4%
inhibition at 5000 µM [14]: 99.8%
effect on growth of strain YT (inhibitor 5 mM): did not inhibit the growth
effect on nitrification activity of strain YT (inhibitor 5 mM): always exhibited the inhibiting effect
NH4^+-N [15]: 15
NO2^--N [15]: 0
OD600 [15]: 0.403
NH4^+-N [16]: 89
NO2^--N [16]: 0.5
OD600 [16]: 0.394
NH4^+-N [17]: 130
NO2^--N [17]: 0.37
OD600 [17]: 0.329
NH4^+-N [18]: 111
NO2^--N [18]: 0.33
OD600 [18]: 0.252
NH4^+-N [19]: 419
NO2^--N [19]: 0
OD600 [19]: 0.214
NH4^+-N [20]: 410
NO2^--N [20]: 0.50
OD600 [20]: 0.127
NH4^+-N [21]: 366
NO2^--N [21]: 0.5
OD600 [21]: 0.133
NH4^+-N [22]: 382
NO2^--N [22]: 1.17
OD600 [22]: 0.146
